Results on one compound are retold here after publication PMC12903969, “Discovery of a Novel and Potent Kir4.1 Inhibitor as a Safe and Rapid‐Onset Antidepressant Agent in Mice” (Advanced Science, 2025).

Series [1] deals with primary cortical astrocytes (native Kir4.1 channels). The experiment in a line: Patch clamp of primary cultured WT astrocytes (native Kir4.1). Type of series: cell-based, mouse. Here is the method:
Astrocytes were isolated and cultured as previously described.^[ [16] ^] Briefly, the cortices from P1‐P4 mouse pups were dissected and incubated for 25 min in Hank's Balanced Salt Solution (22.5 ml) with 2.5% trypsin (2.5 ml) at 37 °C. Cells were dissociated in cultured medium (DMEM/F12 supplemented with 10% fetal bovine serum and 1% penicillin and streptomycin) and filtered with a 70‐µm cell strainer. Cell suspensions were cultured in PDL‐pretreated 75‐cm^2 flasks for the initial seven days, with half of the medium replaced every 2 days. Subsequently, the cultures were shaken at 220 rpm for 6 h at 37 °C to remove microglia and oligodendrocytes from the astrocyte layers. The astrocytes were harvested, reseeded in two new flasks, and cultured in an incubator for 14 days. For Kir4.1 deletion in cell cultures, 4‐OH tamoxifen (final concentration: 1 µM, Felixbio) was added into Kir4.1^flox/flox: Aldh1l1‐Cre/ERT2 cortical cultures at DIV 2 and DIV 4, respectively, and completely removed at DIV7 when astrocytes were reseeded in fresh culture medium.
(§1) Whole‐cell patch‐clamp recordings were obtained either in transiently transfected CHO‐K1 cells or in primary cultured astrocytes at room temperature using standard patch‐clamp techniques with an Axopatch‐700B amplifier (Axon Instruments). The signals were filtered at 2 kHz and sampled at 20 kHz using the Digidata 1440A interface (Axon Instruments). The resistance of borosilicate glass pipettes was typically 2–4 MΩ when filled with the internal solution. Drug application was facilitated using a BPS perfusion system (ALA Scientific Instruments). Macroscopic currents generated by expressed potassium channels were recorded under the voltage‐clamp conditions with an internal pipette solution composed of (in mM): 140 KCl, 5 NaCl, 1 CaCl2, 1 MgCl2, 10 HEPES, and 10 EGTA, pH 7.2 adjusted with KOH. The external solution contained (in mM): 140 NaCl, 5 KCl, 2 CaCl2, 1 MgCl2, 10 glucose, and 10 HEPES, pH 7.4 adjusted with NaOH. Currents were elicited with a hyperpolarized voltage at −120 mV from the holding potential of −80 mV, followed by a ramp voltage depolarizing to +50 mV. Astrocytic resting membrane potentials were recorded under current‐clamp conditions (I = 0 pA) using standard internal and external solutions, determined immediately after achieving whole‐cell mode.
Background: The patch-clamp technique gives a direct electrical read-out from membranes.

For the next series, the target named is T1, Kir4.1 T162A (Homo sapiens, UniProt P78508, T162A).
T1 construct: expressed in transfected cells; host or cells: CHO-K1
T1 sequence (P78508 whole entry T162A): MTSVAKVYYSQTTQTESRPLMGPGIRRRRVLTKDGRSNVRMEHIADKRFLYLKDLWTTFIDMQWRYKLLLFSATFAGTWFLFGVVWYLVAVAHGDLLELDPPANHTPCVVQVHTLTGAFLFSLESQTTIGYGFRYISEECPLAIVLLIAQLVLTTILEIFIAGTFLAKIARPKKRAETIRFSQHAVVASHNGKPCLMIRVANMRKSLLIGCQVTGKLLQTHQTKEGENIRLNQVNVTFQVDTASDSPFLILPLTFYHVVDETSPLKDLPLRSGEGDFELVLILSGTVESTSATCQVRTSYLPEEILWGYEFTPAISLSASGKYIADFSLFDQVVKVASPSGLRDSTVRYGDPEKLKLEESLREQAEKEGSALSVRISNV
Description: Whole-cell patch clamp, Kir4.1 point mutant T162A. Type of series: cell-based. Conditions: JX3212 3 µM (Fig 2D). Here is the method: (§2) Plasmids encoding WT human potassium channels Kir1.1, Kir2.1, Kir2.2, Kir4.1, and Kir4.2 were obtained from the Beijing Genomics Institute. All point mutations were constructed using the QuickChange II Site‐Directed Mutagenesis Kit (Stratagene) and subsequently verified by sequencing.
(§3) CHO‐K1 cells were maintained in DMEM/F12 growth medium containing 10% fetal bovine serum. Plasmids encoding the target genes (3600 ng) and enhanced green fluorescent protein (400 ng) were cotransfected into cells using Lipofectamine 2000 (Invitrogen) in accordance with the manufacturer's instructions. Cells were seeded onto poly‐d‐lysine (PDL)‐coated glass coverslips 1 h prior to electrophysiological recordings. […]
(§4) Whole‐cell patch‐clamp recordings were obtained either in transiently transfected CHO‐K1 cells or in primary cultured astrocytes at room temperature using standard patch‐clamp techniques with an Axopatch‐700B amplifier (Axon Instruments). […] Macroscopic currents generated by expressed potassium channels were recorded under the voltage‐clamp conditions with an internal pipette solution composed of (in mM): 140 KCl, 5 NaCl, 1 CaCl2, 1 MgCl2, 10 HEPES, and 10 EGTA, pH 7.2 adjusted with KOH. […] Astrocytic resting membrane potentials were recorded under current‐clamp conditions (I = 0 pA) using standard internal and external solutions, determined immediately after achieving whole‐cell mode.

The target of another series is T2, 5-HT2A receptor (Homo sapiens, UniProt P28223).
T2 construct: expressed in transfected cells
T2 sequence (P28223 whole entry): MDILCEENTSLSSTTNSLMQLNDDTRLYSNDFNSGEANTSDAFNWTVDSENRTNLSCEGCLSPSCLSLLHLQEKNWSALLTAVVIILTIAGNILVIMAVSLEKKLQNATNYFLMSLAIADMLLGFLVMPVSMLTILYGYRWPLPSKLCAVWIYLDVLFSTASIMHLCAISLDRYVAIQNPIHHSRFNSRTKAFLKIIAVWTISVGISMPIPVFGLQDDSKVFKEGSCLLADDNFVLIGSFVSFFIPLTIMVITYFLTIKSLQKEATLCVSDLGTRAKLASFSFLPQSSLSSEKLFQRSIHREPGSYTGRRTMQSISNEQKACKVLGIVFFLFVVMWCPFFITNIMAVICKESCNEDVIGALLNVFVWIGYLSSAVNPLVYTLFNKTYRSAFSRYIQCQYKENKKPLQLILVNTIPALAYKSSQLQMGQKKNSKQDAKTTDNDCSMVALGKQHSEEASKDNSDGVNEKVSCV
The experiment in a line: 5-HT2A functional assay (Fluo-4 calcium, FDSS). Type of series: cell-based. Here is the method: Cells with inducible expression of target receptor were cultured in 175‐cm^2 flasks until ≈80% confluence, washed once with phosphate‐buffered saline (PBS), and dissociated using 0.25% trypsin–EDTA. After neutralization with culture medium and centrifugation (800 rpm, 3 min), the cells were resuspended, counted, and seeded onto poly‐D‐lysine‐coated 96‐well black plates at a density of 4 × 10^4 cells/well. Expression of the target receptor was induced with 1 µg mL^−1 doxycycline. After 30 min at room temperature, the plates were incubated at 37 °C, 5% CO2 for 18−24 h until reaching ≈90% confluence. The medium was replaced with Ca^2⁺‐free extracellular buffer, washed once, and incubated with Fluo‐4 AM for 60 min at 37 °C in the dark. After washing twice with extracellular buffer, extracellular buffer was added (80 µL/well), and the cells were incubated for an additional 20 min at room temperature before fluorescence recording. Real‐time fluorescence changes were recorded using an FDSS/µCell system at 480 nm excitation and 540 nm emission with a sampling rate of 1 Hz. After a 10‐s baseline, the test compounds were added (20 µL/well), and fluorescence was recorded for 180 s. Subsequently, […] was added (20 µL/well), and the signals were monitored for a total of 360 s.
The agonistic effect (%) of compounds was calculated as follows: (1) Agonist%=Rcompound−Rcontrol/Rcontrol×100% where R control is the maximal fluorescence ratio after the addition of 0.5% DMSO and R compoundis the ratio obtained after compound treatment. Fluorescence response curves and EC50 values were used to evaluate the agonistic potency. The extracellular (Ca^2+‐free) buffer contained (in mM): 140 NaCl, 5 KCl, 1 MgCl2, 10 glucose, 10 HEPES, 2 probenecid; pH adjusted to 7.4 with NaOH.

The target of a further series is T3, Kir1.1 (Homo sapiens, UniProt P48048).
T3 construct: host or cells: CHO-K1
T3 sequence (P48048 whole entry): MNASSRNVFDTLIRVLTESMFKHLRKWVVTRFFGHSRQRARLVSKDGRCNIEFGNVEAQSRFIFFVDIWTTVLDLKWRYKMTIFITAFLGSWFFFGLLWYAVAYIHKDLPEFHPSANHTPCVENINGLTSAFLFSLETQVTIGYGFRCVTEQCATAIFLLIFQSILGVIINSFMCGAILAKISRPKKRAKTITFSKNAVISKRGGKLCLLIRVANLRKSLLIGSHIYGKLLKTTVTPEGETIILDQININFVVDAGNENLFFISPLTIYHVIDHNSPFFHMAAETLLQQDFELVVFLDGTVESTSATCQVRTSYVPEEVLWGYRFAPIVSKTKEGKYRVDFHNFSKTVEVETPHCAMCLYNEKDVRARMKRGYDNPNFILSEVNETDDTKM
The experiment in a line: Whole-cell patch clamp, Kir1.1. Conditions: mean ± SEM. Type of series: cell-based. Here is the method:
as §2, §3, §4

The next series deals with mice. Description: Treadmill test (TT). It counts as in vivo. Conditions: chronic 10 mg kg−1 per day. Here is the method: This test was designed to quantify locomotor endurance in rodents. The time (300 s) and speed (maximum: 30 rpm) parameters for the treadmill were set using a digital panel and the mice were placed in lanes. Gentle electrical probes (0.3 mA) served as motivational stimuli. Total distance traveled was automatically recorded using rotary encoder integration.

The target in the next series is T4, Kir2.1 (Homo sapiens, UniProt P63252).
T4 construct: host or cells: CHO-K1
T4 sequence (P63252 1-427): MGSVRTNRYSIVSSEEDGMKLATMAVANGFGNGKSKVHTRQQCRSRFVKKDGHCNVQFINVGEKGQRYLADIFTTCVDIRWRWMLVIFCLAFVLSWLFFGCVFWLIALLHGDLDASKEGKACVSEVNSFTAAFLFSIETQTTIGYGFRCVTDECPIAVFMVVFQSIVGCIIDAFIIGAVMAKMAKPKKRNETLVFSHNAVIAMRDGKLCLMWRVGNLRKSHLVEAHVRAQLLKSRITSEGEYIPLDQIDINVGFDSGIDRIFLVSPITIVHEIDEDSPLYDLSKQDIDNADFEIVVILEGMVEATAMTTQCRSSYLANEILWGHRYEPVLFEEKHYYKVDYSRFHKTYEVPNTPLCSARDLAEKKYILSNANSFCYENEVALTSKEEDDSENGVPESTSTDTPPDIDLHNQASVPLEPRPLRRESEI
Description: Whole-cell patch clamp, Kir2.1. Type of series: cell-based. Here is the method:
as §2
CHO‐K1 cells were maintained in DMEM/F12 growth medium containing 10% fetal bovine serum. Plasmids encoding the target genes (3600 ng) and enhanced green fluorescent protein (400 ng) were cotransfected into cells using Lipofectamine 2000 (Invitrogen) in accordance with the manufacturer's instructions. Cells were seeded onto poly‐d‐lysine (PDL)‐coated glass coverslips 1 h prior to electrophysiological recordings. All cells were cultured under standard conditions of 5% CO2 at 37 °C.
as §1

Several values for one entry are separate records, joined by “and”; a condition that tells them apart may be missing. Identical values can stand only once. Like-named read-outs stand apart in the source and are kept apart here.

Usually EC50 stands for the concentration at which the effect is half-maximal. As a reminder, the inhibition is how much of the control response was suppressed. On to `c1ccc2c(c1)oc1ccc(Nc3ccnc(NCCCN4CCOCC4)n3)cc12` [JX3212, N^4-(dibenzo[b,d]furan-2-yl)-N^2-(3-morpholinopropyl)pyrimidine-2,4-diamine], for which, in series [1] (JX3212 3 µM, BaCl2 100 µM), the “astrocytic resting membrane potential (in words)” value is “marked depolarization”. Besides, the “astrocytic macroscopic slope conductance (in words)” value in series [1] (WT astrocytes, 3 µM) is “partially impaired the macroscopic slope conductance”. Further, the “astrocytic potassium currents (in words)” value in series [1] (WT astrocytes, 3 µM) is listed as “notably decreased potassium currents”. Moreover, the “Mutation: T162A inhibition, single recordings” value at Kir4.1 T162A was 80.9735 and 73.6489 and 64.6435 and 83.1492 and 87.0339. In addition, the 50% effective concentration (EC50) on 5-HT2A receptor (agonistic effect) is over 60 µM. For the same compound, the activation at 60 µM on 5-HT2A receptor (read-out: 5-HT2A agonistic effect, replicates, concentration 60 (presumably µM)) was 61.8%. Moreover, at 5-HT2A receptor (read-out: 5-HT2A max activation%), the Emax turned out to be 58.6%. The inhibition at 3 µM against Kir1.1 is 17.8 ± 8.26%; at Kir2.1 (3 µM, mean ± SEM, read-out: inhibition of Kir2.1) it was 49.9 ± 4.35%; at Kir2.1 (JX3212 3 µM (Fig 2A), read-out: Kir isoforms: Kir2.1 inhibition, single recordings), 48.1%. The “treadmill running distance vs vehicle (in words)” value with mice was “showed no significant effects”. For the same compound, the “Kir isoforms: Kir2.1 inhibition, single recordings” value on Kir2.1 (JX3212 3 µM (Fig 2A)) is 46.776 and 54.8667.
